Test results taken from paper PMC3388095, “Fluorophore Labeled Kinase Detects Ligands That Bind within the MAPK Insert of p38α Kinase” (PLoS ONE, 2012).

Molecular target: T1, p38α MAPK insert (Homo sapiens, UniProt Q16539, C119S/C162S/S252C)
T1 construct: His-tag with PreScission Protease cleavage site (N); made in house; host or cells: E. coli BL21(DE3) Codon+RIL
Assay: FLiK direct binding assay, acrylodan-labeled p38α (S252C) MAPK insert / lipid binding site
Conditions: binding to p38α MAPK insert
Description: The human p38α kinase construct containing the mutations required for specific labeling (C119S/C162S/S252C) as well as wild type p38α were cloned into a pOPINF vector and transformed as an N-terminal His-tag construct with a PreScission Protease cleavage site into BL21(DE3) Codon+RIL E. coli. Protein expression, purification, fluorophore labeling and verification of mono-labeling of the kinase were performed essentially as described previously. Labeling of the mutant p38α protein with thiol-reactive acrylodan was carried out by adding a 1.5∶1 molar excess of the fluorophore (dissolved in DMSO) to the purified protein in 50 mM Hepes Buffer (pH 7.0). The mixture was allowed to react in the dark overnight at 4°C. Unreacted acrylodan was subsequently removed by three cycles of buffer exchange into FLiK Measurement Buffer (50 mM Hepes Buffer, pH 7.4+200 mM NaCl) using a 10k-MWCO Centricon. The protein was concentrated to ∼200 μM, aliquoted and frozen at −80°C. Mono-labeling of the protein was verified by ESI-MS as described previously, [24].
Characterization of the fluorescence response of MAP insert-labeled p38α was carried out as described previously for p38α labeled on the activation loop. […] Briefly, a polystyrene cuvette containing a suspension of 50 nM acrylodan-labeled p38α in FLiK Buffer was excited at 386 nm and emission spectra were measured in the absence and presence of increasing concentrations of 1b. The compound was dissolved in 100% DMSO and delivered in sequential small doses to a single sample. […] Ratiometric fluorescence readouts are advantageous in that they provide an internal correction for small errors in sample volume which can affect signal intensity. All measurements of the cuvettes were made with a JASCO FP-6500 fluorescence spectrophotometer (JASCO GmbH, Germany).
The assay was adapted to high-throughput screening formats which enabled KD values to be determined in black small volume assay plates. Briefly, a dilution series of each compound was first prepared in 100% DMSO at 20X the desired final concentration and 1 μL was transferred to the assay plate. Compounds were then mixed with 19 µL of FLiK Buffer (supplemented with 0.01% Triton X-100) containing acrylodan-labeled p38α (100 nM). The final concentration of compound in the dilution series ranged from 0–50 μM (5% v/v DMSO final). Plates were covered with an adhesive aluminum foil and incubated for 30 min at RT prior to measurement of emission intensities at 470 and 520 nm using a Tecan Safire^2 plate reader. […] Binding curves were plotted using the ratio R = I520/I470 to determine the KD.

[1] = ratiometric acrylodan emission, each concentration in triplicate

T1 sequence (Q16539 whole entry C119S/C162S/S252C): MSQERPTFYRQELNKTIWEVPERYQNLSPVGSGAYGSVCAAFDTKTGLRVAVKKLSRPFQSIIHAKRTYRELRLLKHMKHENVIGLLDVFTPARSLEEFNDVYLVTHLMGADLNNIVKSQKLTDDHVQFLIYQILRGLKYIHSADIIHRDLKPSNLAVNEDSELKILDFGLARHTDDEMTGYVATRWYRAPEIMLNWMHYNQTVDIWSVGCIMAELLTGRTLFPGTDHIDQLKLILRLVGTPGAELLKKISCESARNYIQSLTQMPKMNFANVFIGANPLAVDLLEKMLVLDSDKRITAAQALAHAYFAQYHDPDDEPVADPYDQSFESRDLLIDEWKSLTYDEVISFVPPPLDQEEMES

Row | SMILES | Kd [1] [nM] | Kd (value as printed in text) [nM]
1 | O=[N+]([O-])c1ccc2c(NC3CC3)nc(-c3ccncc3)nc2c1 [5a, N-Cyclopropyl-7-nitro-2-(4-pyridinyl)-4-quinazolinamine] | > 10000 | –
2 | O=[N+]([O-])c1ccc2c(NC3CC3)nc(-c3ccccc3)nc2c1 [1a, N-Cyclopropyl-7-nitro-2-phenyl-4-quinazolinamine] | 1900 ± 200 | –
3 | O=[N+]([O-])c1ccc2c(NCC3CC3)nc(-c3ccccc3)nc2c1 [6a, N-(Cyclopropylmethyl)-7-nitro-2-phenyl-4-quinazolinamine] | 460 ± 210 | –
4 | Nc1ccc2c(NCC3CC3)nc(-c3ccccc3)nc2c1 [6b, N^4-(Cyclopropylmethyl)-2-phenyl-4,7-quinazolinediamine] | 4700 ± 700 | –
5 | Nc1ccc2c(NC3CC3)nc(-c3ccncc3)nc2c1 [5b, N^4-Cyclopropyl-2-(4-pyridinyl)-4,7-quinazolinediamine] | > 50000 | –

More lines, now with the values ahead:

Row | Kd [1] [nM] | Kd (value as printed in text) [nM] | SMILES
6 | 1800 ± 300 | – | O=[N+]([O-])c1ccc2c(NCCc3ccccc3)nc(-c3ccncc3)nc2c1 [8c, 7-Nitro-N-(2-phenylethyl)-2-(4-pyridinyl)-4-quinazolinamine]
7 | 810 ± 100 | – | O=[N+]([O-])c1ccc2c(NCc3ccccc3)nc(-c3ccncc3)nc2c1 [7c, N-Benzyl-7-nitro-2-(4-pyridinyl)-4-quinazolinamine]
8 | 1200 ± 300 | – | Nc1ccc2c(NCCc3ccccc3)nc(-c3ccccc3)nc2c1 [8b, 2-Phenyl-N^4-(2-phenylethyl)-4,7-quinazolinediamine]
9 | – | 280 | O=[N+]([O-])c1ccc2c(NCCc3ccccc3)nc(-c3ccccc3)nc2c1 [8a, 7-Nitro-2-phenyl-N-(2-phenylethyl)-4-quinazolinamine]
10 | 320 ± 90 | – | O=[N+]([O-])c1ccc2c(NCc3ccccc3)nc(-c3ccccc3)nc2c1 [7a, N-Benzyl-7-nitro-2-phenyl-4-quinazolinamine]
11 | 2200 ± 800 | – | Nc1ccc2c(NCc3ccccc3)nc(-c3ccccc3)nc2c1 [7b, N^4-Benzyl-2-phenyl-4,7-quinazolinediamine]
